Measured values reported in ChEMBL document CHEMBL1134943, “Synthesis and biological activity of retinoic acid receptor-alpha specific amides” (Bioorg Med Chem Lett, 2002).
Where a chain is given by its changes, count along the chain named. Active and inactive are the calls of the source. The calls are words filed in the database; no cut-off is given here.

Key:
[1] = biological target: T1, Retinoic acid receptor alpha (Homo sapiens, UniProt P10276); experiment: Effective concentration for retinoic acid receptor RAR alpha transcriptional activation; type: functional
T1 sequence (P10276 whole entry): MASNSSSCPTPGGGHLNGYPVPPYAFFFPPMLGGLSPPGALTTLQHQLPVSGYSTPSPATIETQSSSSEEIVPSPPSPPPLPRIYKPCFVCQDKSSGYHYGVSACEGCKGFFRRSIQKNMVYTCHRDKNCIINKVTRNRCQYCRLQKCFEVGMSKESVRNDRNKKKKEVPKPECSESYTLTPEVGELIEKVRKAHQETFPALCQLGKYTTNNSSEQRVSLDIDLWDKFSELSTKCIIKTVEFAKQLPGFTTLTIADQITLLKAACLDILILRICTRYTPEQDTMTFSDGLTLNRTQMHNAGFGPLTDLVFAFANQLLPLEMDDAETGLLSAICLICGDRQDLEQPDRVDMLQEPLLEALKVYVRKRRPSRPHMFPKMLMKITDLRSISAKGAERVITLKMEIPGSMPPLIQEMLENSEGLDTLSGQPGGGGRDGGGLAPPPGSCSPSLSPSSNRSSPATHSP

[2] = biological target: T2, Retinoic acid receptor gamma (Homo sapiens, UniProt P13631); experiment: Binding affinity for retinoic acid receptor RAR gamma
T2 sequence (P13631 whole entry): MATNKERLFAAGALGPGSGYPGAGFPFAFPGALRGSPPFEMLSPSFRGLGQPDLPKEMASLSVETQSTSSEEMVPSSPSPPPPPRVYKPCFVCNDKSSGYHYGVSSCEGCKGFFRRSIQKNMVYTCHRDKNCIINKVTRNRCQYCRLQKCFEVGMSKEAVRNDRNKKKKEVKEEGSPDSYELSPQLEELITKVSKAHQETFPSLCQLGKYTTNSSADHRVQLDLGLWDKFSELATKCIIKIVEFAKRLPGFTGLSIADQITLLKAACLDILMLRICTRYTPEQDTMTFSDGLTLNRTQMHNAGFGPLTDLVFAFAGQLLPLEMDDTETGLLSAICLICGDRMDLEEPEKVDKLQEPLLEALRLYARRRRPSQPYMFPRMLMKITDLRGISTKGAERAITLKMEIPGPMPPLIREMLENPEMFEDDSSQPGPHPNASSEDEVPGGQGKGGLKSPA

[3] = biological target: T3, Retinoic acid receptor gamma (Homo sapiens) (UniProt P13631); experiment: Percent transcriptional activation of RAR gamma compared to 1 µM ATRA
T3 sequence (whole entry): T2 sequence (P13631 whole entry)

[4] = biological target: T4, Retinoic acid receptor beta (Homo sapiens, UniProt P10826); experiment: Binding affinity for retinoic acid receptor RAR beta
T4 sequence (P10826 whole entry): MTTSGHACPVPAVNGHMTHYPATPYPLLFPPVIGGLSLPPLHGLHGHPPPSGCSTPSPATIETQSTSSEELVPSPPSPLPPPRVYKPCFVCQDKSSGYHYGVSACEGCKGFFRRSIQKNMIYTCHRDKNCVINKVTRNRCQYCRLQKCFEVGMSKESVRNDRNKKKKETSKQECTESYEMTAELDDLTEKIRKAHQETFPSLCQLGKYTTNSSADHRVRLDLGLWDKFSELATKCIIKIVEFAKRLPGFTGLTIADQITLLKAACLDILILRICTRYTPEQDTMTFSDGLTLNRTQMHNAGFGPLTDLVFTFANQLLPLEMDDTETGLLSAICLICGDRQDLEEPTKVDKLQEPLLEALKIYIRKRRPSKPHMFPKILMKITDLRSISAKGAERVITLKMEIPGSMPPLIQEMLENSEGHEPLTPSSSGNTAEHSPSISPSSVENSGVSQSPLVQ

[5] = biological target: T2, Retinoic acid receptor gamma; experiment: Effective concentration for retinoic acid receptor RAR gamma transcriptional activation; type: functional
[6] = biological target: T5, Retinoic acid receptor beta (Homo sapiens) (UniProt P10826); experiment: Percent transcriptional activation of RAR beta compared to […]; type: functional
T5 sequence (whole entry): T4 sequence (P10826 whole entry)

[7] = biological target: T4, Retinoic acid receptor beta; experiment: Effective concentration for retinoic acid receptor RAR beta transcriptional activation; type: functional
[8] = biological target: T1, Retinoic acid receptor alpha; experiment: Binding affinity fo retinoic acid receptor RAR alpha
[9] = biological target: T3, Retinoic acid receptor gamma (Homo sapiens); conditions: 1 mM
[10] = biological target: T5, Retinoic acid receptor beta (Homo sapiens); experiment: Percent transcriptional activation of RAR beta compared to […]; NA indicates […]; type: functional
[11] = biological target: T6, Retinoic acid receptor alpha (Mus musculus) (UniProt P11416); experiment: Topical irritation induced by RAR alpha-selective retinoid Am-580 in mice; type: functional
T6 sequence (whole entry): T1 sequence (P10276 whole entry) with T43S, E150D, V169A, R347K, P427S, G431T, N453H, H460Q

T47D [12] = experiment: Inhibition of ER positive human breast cancer cell T-47D proliferation; type: functional, cell-based
SK-BR-3 [13] = experiment: Inhibition of ER-negative human breast cancer cell SK-BR-3 proliferation; type: functional, cell-based
T47D [14] = experiment: Percent inhibition of BrdU incorporation into T-47D cells; type: functional, Homo sapiens
SK-BR-3 [15] = experiment: Percent inhibition of BrdU incorporation into SK-BR-3 cells; type: functional, Homo sapiens
[16] = biological target: T7, Retinoic acid receptor alpha (Homo sapiens) (UniProt P10276); experiment: Percent transcriptional activation of RAR alpha compared to […]; type: functional
T7 sequence (whole entry): T1 sequence (P10276 whole entry)

| Compound | EC50 [1] [nM] | Kd [2] [nM] | Efficacy [3] [%] | Kd [4] [nM] | EC50 [5] [nM] | Efficacy [6] [%] | EC50 [7] [nM] | Kd [8] [nM] | Efficacy [9] | Efficacy [10] | Topical irritation score(0-21) [11] | IC50 (T47D [12]) [nM] | IC50 (SK-BR-3 [13]) [nM] | Efficacy (T47D [14]) [%] | Efficacy (SK-BR-3 [15]) [%] | Efficacy [16] [%] |
| --- | --- | --- | --- | --- | --- | --- | --- | --- | --- | --- | --- | --- | --- | --- | --- | --- |
| CC1(C)CCC(C)(C)c2cc(C(=O)Nc3ccc(C(=O)O)c(F)c3)ccc21 | 8 | 990 | 85 | 380 | 350 | 78 | 45 | 2 | – | – | – | – | – | – | – | – |
| CC1(C)CCC(C)(C)c2c1cc(C(=O)Nc1cc(F)c(C(=O)O)c(F)c1)c(O)c2Br | 290 | > 100000 | – | 6400 | – | – | – | 4 | inactive | inactive | – | – | – | – | – | – |
| CC1(C)CCC(C)(C)c2cc(C(=O)Nc3ccc(C(=O)O)cc3)ccc21 | – | – | 80 | – | – | 105 | – | – | – | – | 16 | – | – | – | – | – |
| CC1=C(/C=C/C(C)=C/C=C/C(C)=C/C(=O)O)C(C)(C)CCC1 [TRETINOIN] | – | – | – | – | – | – | – | – | – | – | – | 200 | 1.7 | 74 | 99 | – |
| CC1(C)CCC(C)(C)c2c1cc(C(=O)Nc1cc(F)c(C(=O)O)c(F)c1)c(O)c2Cl [NRX195183] | 200 | > 100000 | – | > 100000 | – | – | – | 3 | inactive | inactive | 0 | 1.4 | 11 | 57 | 93 | 80 |
| CC1(C)CCC(C)(C)c2cc(C(=O)Nc3cc(F)c(C(=O)O)c(F)c3)c(O)cc21 | 112 | 5600 | 10 | > 100000 | > 1000 | 10 | > 1000 | 3 | – | – | – | – | – | – | – | – |
| CC1(C)CCC(C)(C)c2cc(C(=O)Nc3cc(F)c(C(=O)O)c(F)c3)ccc21 | 94 | 5600 | – | 1470 | – | 25 | > 1000 | 7 | inactive | – | – | – | – | – | – | – |
